Reference: article PMC7807051, “Modulation of cAMP metabolism for CFTR potentiation in human airway epithelial cells” (Scientific Reports, 2021)

What was measured:
CFTR = experiment: In vitro CFTR membrane potential assay in Calu-3 cells; assay type: cell-based, human; conditions: Calu-3
Procedure: An in vitro CFTR membrane potential assay was performed on Calu-3 cells and primary human bronchial epithelial cells, from two independent donors, cultured at 37 °C as previously described. All human samples were collected from consented individuals under ethics approval granted by Hamilton Integrated Research Ethics Board (Project Number 5099-T).
Calu-3 cells were grown for 21 days on 96-well plates and primary HBECs were grown for 14 days under air–liquid interface conditions on collagen-coated (Sigma-Aldrich) 6.5 mm Transwell Inserts (Corning). All cells were washed with HBSS prior to experimental conditions. After washing with HBSS, cells were loaded with BLUE Membrane Potential Dye (Molecular Devices, #R8042) dissolved in 37 °C chloride-free buffer (NMDG Gluconate Buffer – 150 mM NMDG-gluconate, 3 mM KCl, 10 mM HEPES, pH 7.35, 300 mOsm). Immediately after dye loading, CFTR activity measurements were taken. CFTR activity measurements are fluorescent readouts for detecting ion channel activity. CFTR inhibition was performed with CFTRinh-172 (10 μM) for all experiments to attribute changes in fluorescence as CFTR channel activity. This assay has been validated using proof of concept studies where results obtained from this assay were able to recapitulate findings obtained from direct measurements of ion channel activity using Ussing chambers. At the end of this assay, raw data was exported for statistical analysis.
For Calu-3 cells, measurements were taken during baseline (40 min), cAMP elevation (30 min), and CFTR inhibition (20 min). cAMP elevation was performed using forskolin or isoproterenol (0.0005–50 μM). For assays with ABCC4 or PDE-4 inhibitors, a pre-incubation with the inhibitors (30 min) in the plate reader was performed prior to cAMP elevation. CFTR modulator VX-770 was used at 1 μM. CFTR activity was determined by dividing a single membrane potential peak measurement after the ABCC4 or PDE-4 inhibition and cAMP elevation additions to the stabilized baseline over DMSO control.
For in vitro CFTR membrane potential assays, in Calu-3 cells, values were normalized to the averaged baseline over averaged vehicle (DMSO) control of all biological replicates. SD was calculated using data from biological replicates (n = 4–8). An area under the curve (AUC), half-maximal concentration (EC50), […] (Emax), and baseline analysis was performed for each individual replicate then averaged together. The AUC analysis is an aggregate measure of sensitivity and maximal response, allowing for the observation of the total net responsiveness of the cells. The AUC analysis was done by normalizing the individual replicates to the bottom most value of the averaged vehicle control. In primary HBECs, six independent measurements were taken within a single Transwell insert. The value is the average of at least six measurements. These values were normalized to the averaged baseline over the averaged vehicle (DMSO) control. SD was calculated by treating the six measurements as independent, with additional technical replicates (n = 6–18). An AUC and max peak analysis were performed for each measurement, then averaged together. The max peak analysis was the max CFTR activity achieved during the drug addition step.
In order to compare the independent experiments performed, a fold-change analysis using individual AUC, EC50, and Emax, determined from their respective concentration–response curves, was performed and was normalized to the averaged DMSO vehicle control. A one-way ANOVA with subsequent post-hoc test or a paired t-test was performed. Statistical analysis was performed using GraphPad Prism 6.

G551D-CFTR = system: G551D-CFTR; design: method as in PMID 21083385, PMID 22047557; conditions: G551D-CFTR variants; various doses and treatment durations; cited from earlier work
[1] = forskolin (FSK) curve with agent vs DMSO control
[2] = isoproterenol (ISO) curve with agent vs DMSO control

EC50 of concentration–response curve, CFTR activity (CFTR; [1]): increased the sensitivity
EC50 of concentration–response curve, CFTR activity (CFTR; [2]): no changes
SMILES: CC(C)(C)c1cc(C(C)(C)C)c(NC(=O)c2c[nH]c3ccccc3c2=O)cc1O [VX-770, ivacaftor]
Fold-change of AUC relative to vehicle control (CFTR; FSK stimulation, comparison across independent experiments): superior to either ABCC4 (MK-571) or PDE-4 (Roflumilast) inhibition alone
Baseline of concentration–response curve, CFTR activity (CFTR; [1]): no significant changes
Emax of concentration–response curve, CFTR activity (CFTR; [1]): remained unchanged
AUC of concentration–response curve, CFTR activity (CFTR; forskolin (FSK) curve with agent vs DMSO control, VX-770 1 μM, MK-571 1.8 μM, Ceefourin-1 4.8 μM, Roflumilast 1 μM, Rolipram 10 μM, IBMX 100 μM): significant increase
Baseline of concentration–response curve, CFTR activity (CFTR; [2]): significant increase
Emax of concentration–response curve, CFTR activity (CFTR; [2]): no changes
AUC of concentration–response curve, CFTR activity (CFTR; isoproterenol (ISO) curve with agent vs DMSO control, same agent concentrations as E5): significant increase
predicted forced expiratory volume in 1 s (FEV1) from baseline (G551D-CFTR): significant increases
